IC50, EC50 and AC50 data for 8 compounds are collected here from ChEMBL document CHEMBL1201862, “PubChem BioAssay data set” (2004).

The source made the active and inactive calls.

The target of one assay is NADPH oxidase 1 (Homo sapiens, UniProt Q9Y5S8). The assay is described as follows: Late-stage luminescence-based cell-based dose response assay to identify inhibitors of NADPH oxidase 1 (NOX1): Synthesized analogs. In kind it is functional.
Assay [1] has as its target Luciferin 4-monooxygenase (Photinus pyralis, UniProt P08659). Kind of assay: inhibition of purified Photinus pyralis luciferase – biochemical, luminescence, dose response (AID 1891).
A short description of assay [2]: Luminescence Cell-Based Dose Response HTS to Identify Inhibitors of 5'UTR Stem-Loop Driven Prion Protein mRNA Translation in H4 Neuroglioblastoma Cells. [Related pubchem assays: 1827 (Project Summary), 1813 (Primary HTS)]. In kind it is functional.
Assay [3] can be described thus: Luminescence Cell-Based Dose Confirmation HTS to Identify Inhibitors of Platelet Dense Granule Release. [Related pubchem assays: 1663 (Primary HTS), 1678 (Summary of Project)]. Type of assay: functional.
Assay [4] can be described thus: alpha-synuclein stem-loop luciferase translation blockers – H4 neuroglioma cells, luminescence, confirmation (AID 1988). Type of assay: functional, cell-based.
The nature of assay [5]: luciferase reporter signal suppression in cells – H4 neuroglioma cells, luminescence, dose response (AID 1990). Type of assay: functional, cell-based.
A short description of assay [6]: Fluorescence Cell-Based Dose Response to Identify Inhibitors of Thrombin Receptor-Activating Peptide SFLLRN-Mediated P-Selectin Induction on Platelets. [Related pubchem assays: 1663 (Primary HTS), 1889 (retest at dose ), 1891 (counterscreen), 1678 (Project Summary)]. Type of assay: functional.
The target of the next assay is T1, Protein skinhead-1 (Caenorhabditis elegans, UniProt P34707).
T1 sequence (P34707 whole entry): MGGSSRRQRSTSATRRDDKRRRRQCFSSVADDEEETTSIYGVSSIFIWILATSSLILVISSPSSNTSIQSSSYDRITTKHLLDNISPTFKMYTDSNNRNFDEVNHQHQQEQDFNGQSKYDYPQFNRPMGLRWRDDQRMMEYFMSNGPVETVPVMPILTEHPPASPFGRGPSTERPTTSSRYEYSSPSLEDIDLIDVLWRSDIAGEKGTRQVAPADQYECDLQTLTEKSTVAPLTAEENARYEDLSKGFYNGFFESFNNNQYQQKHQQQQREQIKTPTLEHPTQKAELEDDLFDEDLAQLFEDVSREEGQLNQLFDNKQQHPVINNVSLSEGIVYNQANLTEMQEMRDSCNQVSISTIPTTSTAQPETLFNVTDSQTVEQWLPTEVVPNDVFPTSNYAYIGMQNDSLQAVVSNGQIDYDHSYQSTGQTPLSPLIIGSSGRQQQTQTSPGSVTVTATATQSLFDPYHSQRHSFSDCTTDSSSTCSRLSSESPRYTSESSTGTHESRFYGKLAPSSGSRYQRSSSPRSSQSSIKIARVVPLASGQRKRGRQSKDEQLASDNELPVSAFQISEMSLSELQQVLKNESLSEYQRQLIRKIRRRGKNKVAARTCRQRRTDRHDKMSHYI
Type of assay: functional.

Assay [7] addresses T2, Oxysterols receptor LXR-beta (Homo sapiens, UniProt P55055).
T2 sequence (P55055 whole entry): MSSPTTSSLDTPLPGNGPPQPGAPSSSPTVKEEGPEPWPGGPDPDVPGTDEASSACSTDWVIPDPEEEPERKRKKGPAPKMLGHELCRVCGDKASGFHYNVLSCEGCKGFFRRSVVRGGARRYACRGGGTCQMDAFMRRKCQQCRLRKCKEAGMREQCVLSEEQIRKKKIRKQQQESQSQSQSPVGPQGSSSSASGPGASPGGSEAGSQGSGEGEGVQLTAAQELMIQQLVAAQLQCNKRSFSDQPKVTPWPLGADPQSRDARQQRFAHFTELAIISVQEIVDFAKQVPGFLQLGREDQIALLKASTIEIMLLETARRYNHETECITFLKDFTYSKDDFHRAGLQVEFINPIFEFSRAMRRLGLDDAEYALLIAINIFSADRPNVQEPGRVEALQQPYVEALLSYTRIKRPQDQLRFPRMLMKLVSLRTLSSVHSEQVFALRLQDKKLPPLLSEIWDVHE
Type of assay: functional, cell-based.

A short description of assay [8]: Dd2 parasite growth inhibition in erythrocytes – SYBR Green, dry powder samples, set 9, dose response (AID 1159568). In kind it is functional, cell-based.
A short description of assay [9]: embryonic kidney cell viability loss – CellTiter-Glo luminescence, dry powder, set 20, cytotoxicity control, dose response (AID 1117293). Type of assay: functional, cell-based. Particulars: HEK293.
In another assay the target is Kallikrein-7 (Homo sapiens, UniProt P49862). The assay is described as follows: Fluorescence Intensity-based biochemical primary high throughput dose response assay to identify activators of kallikrein-7 (K7) zymogen.
Chain of Kallikrein-7 (P49862 whole entry): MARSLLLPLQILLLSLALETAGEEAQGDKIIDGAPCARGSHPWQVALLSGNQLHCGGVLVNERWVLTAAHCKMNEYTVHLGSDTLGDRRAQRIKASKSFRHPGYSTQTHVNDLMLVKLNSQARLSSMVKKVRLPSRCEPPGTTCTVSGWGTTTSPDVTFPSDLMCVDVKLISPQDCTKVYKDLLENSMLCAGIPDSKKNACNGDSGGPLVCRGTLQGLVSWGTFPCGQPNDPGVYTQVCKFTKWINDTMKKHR
In assay [10] the target is RNA-editing ligase 1, mitochondrial (Trypanosoma brucei brucei, UniProt P86926). Kind of assay: inhibition of trypanosome RNA editing ligase – biochemical, fluorescence, Trypanosoma brucei, dose response (AID 1117295). In kind it is functional.
Chain of RNA-editing ligase 1, mitochondrial (P86926 whole entry): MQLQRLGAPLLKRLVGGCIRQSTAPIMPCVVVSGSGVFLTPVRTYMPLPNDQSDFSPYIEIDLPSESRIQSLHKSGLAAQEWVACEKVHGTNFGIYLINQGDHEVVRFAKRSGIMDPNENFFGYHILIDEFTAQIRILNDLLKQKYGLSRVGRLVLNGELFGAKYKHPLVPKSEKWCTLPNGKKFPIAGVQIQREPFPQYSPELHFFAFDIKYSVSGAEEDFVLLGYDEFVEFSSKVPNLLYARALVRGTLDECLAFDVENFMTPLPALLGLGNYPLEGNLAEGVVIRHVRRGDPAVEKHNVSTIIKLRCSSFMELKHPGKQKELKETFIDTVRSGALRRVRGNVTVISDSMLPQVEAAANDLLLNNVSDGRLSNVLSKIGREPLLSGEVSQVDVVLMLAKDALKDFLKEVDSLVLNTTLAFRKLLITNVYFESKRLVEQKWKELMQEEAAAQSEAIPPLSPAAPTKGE
A short description of assay [11]: Late stage results for the probe development effort to identify inhibitors of Plasmodium falciparum gametocytes: Luminescence-based cell-based high throughput dose response assay to identify inhibitors of viability of late stage Plasmodium falciparum gametocytes. Type of assay: functional.

Chain of NADPH oxidase 1 (Q9Y5S8 whole entry): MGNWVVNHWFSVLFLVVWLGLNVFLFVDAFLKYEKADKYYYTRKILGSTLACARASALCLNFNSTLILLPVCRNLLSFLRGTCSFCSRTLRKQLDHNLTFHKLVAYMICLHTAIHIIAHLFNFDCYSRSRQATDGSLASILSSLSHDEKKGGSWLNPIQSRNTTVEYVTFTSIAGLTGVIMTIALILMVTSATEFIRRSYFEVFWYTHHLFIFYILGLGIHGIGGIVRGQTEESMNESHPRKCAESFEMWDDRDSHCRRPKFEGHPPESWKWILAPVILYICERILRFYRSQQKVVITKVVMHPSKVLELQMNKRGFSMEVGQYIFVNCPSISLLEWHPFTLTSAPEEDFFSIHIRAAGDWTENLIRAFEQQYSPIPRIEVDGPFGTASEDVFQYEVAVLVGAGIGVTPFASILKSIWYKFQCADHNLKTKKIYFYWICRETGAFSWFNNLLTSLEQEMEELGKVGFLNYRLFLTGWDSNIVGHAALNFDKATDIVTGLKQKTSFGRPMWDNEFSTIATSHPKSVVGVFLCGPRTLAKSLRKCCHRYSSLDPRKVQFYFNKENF
Chain of Luciferin 4-monooxygenase (P08659 whole entry): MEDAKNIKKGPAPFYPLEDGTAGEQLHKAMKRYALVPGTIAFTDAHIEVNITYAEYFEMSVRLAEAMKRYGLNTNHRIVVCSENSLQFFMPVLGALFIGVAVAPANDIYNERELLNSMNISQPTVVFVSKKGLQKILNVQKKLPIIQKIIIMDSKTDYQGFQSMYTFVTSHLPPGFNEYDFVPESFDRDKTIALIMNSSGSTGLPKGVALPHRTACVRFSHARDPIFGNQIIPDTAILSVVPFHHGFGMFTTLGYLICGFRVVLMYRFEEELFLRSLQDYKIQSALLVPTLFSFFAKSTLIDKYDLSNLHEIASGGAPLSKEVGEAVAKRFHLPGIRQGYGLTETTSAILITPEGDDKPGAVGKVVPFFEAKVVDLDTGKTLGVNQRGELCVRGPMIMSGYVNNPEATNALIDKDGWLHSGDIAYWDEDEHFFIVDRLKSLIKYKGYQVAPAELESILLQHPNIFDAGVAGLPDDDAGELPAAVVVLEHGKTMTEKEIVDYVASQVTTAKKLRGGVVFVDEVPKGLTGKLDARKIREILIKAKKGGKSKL

For the compound `O=C(c1ccco1)N1c2ccccc2Sc2ccccc21`, the IC50 at NADPH oxidase 1 was 6.37 µM (active). `COc1cc2c(cc1OC)-c1cc(Nc3ccccc3C)nc(=O)n1CC2`: the EC50 in assay [1] was > 112 µM (not active); in assay [2] it was 49.5 µM (active); in assay [3], 0.24 µM (active); in assay [4] it was 17.8 µM (active); in assay [5], 15.6 µM (active); in assay [6], < 0.3 µM (active). For the compound `CNc1ccc(C=C2C=Cc3ccccc32)cc1`, the IC50 at Protein skinhead-1 was 20.5 µM (active). The EC50 (in the assay “cells”; in assay [7]) was > 67.6 µM (inactive) each time.

Turning to `O=C(Nc1ccccc1F)N1CCCCN2[C@H](C1)[C@H](c1ccc(/C=C/c3ccccc3)cc1)[C@@H]2CO`, the AC50 in [8] is 3.61 µM (active). In the case of `O=S(=O)(Nc1cc(C(F)(F)F)ccc1N1CCCCC1)c1ccc(-c2ccccc2)cc1`, the AC50 in assay [9] was 0.852 µM (active). On to `COC(=O)c1ccc(N2C(c3cc(OC)cc(OC)c3)=Cc3ccc(-c4ccc(C(N)=O)cc4)cc3C2CC(=O)C2CC2)cc1` (stereo not given), for which the EC50 at Kallikrein-7 is > 7.72 µM (active).

`COC(=O)C1=C(C)N(Cc2ccc(C(F)(F)F)cc2)C(NCc2ccc(OC)cc2)=NC1c1ccccc1C(F)(F)F` (stereo not given): in assay [10], the IC50 was > 96.6 µM (inactive). As to `O=C(Nc1nccs1)c1cc(-c2ccccc2)nn1-c1ccccc1`, in [11], the IC50 is > 37.2 µM (inactive).
